The source of these data is patent publication US12667560B2, “Co-administration of mirdametinib and lifirafenib for use in treating cancers” (BeiGene, Ltd., priority 2020, dated 2026).

The assay deals with subcutaneous Calu-6 tumors which harbor a K-RAS mutation. The assay is described as follows: Efficacy study in Calu-6 K-RAS mutated human xenograft lung adenocarcinoma model. Format: in vivo, Balb/c nude mice. The note with it: Compound B maleate alone, 2.5 mg/kg (free base) p.o. BID, Group 2. On the procedure:
To determine the effects of Compound B Maleate and Compound A, alone or in combination, on growth of subcutaneous Calu-6 tumors which harbor a K-RAS mutation in Balb/c nude mice in an Efficacy Study.
Experimental designs for the Efficacy study are illustrated in Table 2.
Each mouse was inoculated subcutaneously at the right flank with Calu-6 tumor cells (5×10^6 cells in 0.1 ml 50% Matrigel® in MEM). Tubes containing suspended cells and syringes were kept on ice to avoid solidification of Matrigel®. 2× overage was implemented for cell injection. When mean tumor volume reached the indicated sizes in Table 2, animals were randomly assigned to the indicated groups in Table 2 and received the first dosing. […]
Tumor volumes and mouse body weights were measured three times weekly after tumors became palpable and before randomization and grouping. Afterwards, tumor volumes and mouse body weights were measured twice weekly to termination, in two dimensions using a caliper, and the tumor volumes were expressed in mm^3 using the formula: V=0.5 L×W^2, where L and W were the long and short diameters of the tumor, respectively. The TGI value for the drug A-treated group at Day X was calculated as following: TGI (%)={1−[mTV(drug at Day X)−mTV(drug at Day 0)]/[mTV(veh at Day X)−mTV(veh at Day 0)]}×100, where mTV represented mean tumor volume. […]
(Xenograft models place foreign cells or tissue in a host animal.)

Structures can show the parent of a compound that is named as a salt.

`O=C1CCc2c(Oc3ccc4c(c3)[C@@H]3[C@H](C4)[C@H]3c3nc4ccc(C(F)(F)F)cc4[nH]3)ccnc2N1` [Compound B maleate]: the “inhibition of Calu-6 tumor growth compared to the vehicle control” value is “significant inhibition”.
